Assay results reported in the NIST ThermoML archive (doi:10.1021/je0340248).

Experiments:
[1] = 101.33 kPa, Liquid
[2] = xn = mol fraction of the nth substance listed; conditions: 101 kPa, Liquid

OCCO [1,2-ethanediol]
[1]
Conditions | mass density [kg/m3] | speed of sound [m/s] | viscosity [mPa·s]
298.15 K | – | 1662 | 14.82
303.15 K | 1106.63 | – | –
308.15 K | – | 1635 | 10.48
313.15 K | 1099.64 | – | –

CC(O)CO (configuration not stated) [1,2-propanediol]
[1]
Conditions | mass density [kg/m3] | speed of sound [m/s] | viscosity [mPa·s]
298.15 K | 1032.75 | 1492 | 43.43
303.15 K | 1029.02 | – | –
308.15 K | 1025.4 | 1454 | 24.24
313.15 K | 1021.53 | – | –

CC(=O)OCCC(C)C [3-methylbutyl ethanoate]
[1]
Conditions | mass density [kg/m3] | speed of sound [m/s] | viscosity [mPa·s]
298.15 K | 866.21 | 1195 | 0.781
303.15 K | 861.05 | – | –
308.15 K | 855.85 | 1154 | 0.747
313.15 K | 852.95 | – | –

OCCOCCO [diethylene glycol] + COC(C)=O
[2]
Conditions | mass density, 298.15 K [kg/m3] | mass density, 303.15 K [kg/m3] | mass density, 308.15 K [kg/m3] | mass density, 313.15 K [kg/m3] | speed of sound, 298.15 K [m/s] | speed of sound, 308.15 K [m/s] | viscosity, 298.15 K [mPa·s] | viscosity, 308.15 K [mPa·s]
x2 = 0.0406 | 1107.83 | 1103.83 | 1100.41 | 1097.07 | 1562 | 1533 | 26.42 | 14.2
x2 = 0.1512 | 1091.77 | 1087.47 | 1083.89 | 1080.13 | 1513 | 1485 | 18.27 | 8.812
x2 = 0.2516 | 1076.55 | 1071.84 | 1068.15 | 1063.99 | 1472 | 1441 | 12.72 | 5.78
x2 = 0.3488 | 1061.26 | 1056.15 | 1052.35 | 1047.79 | 1431 | 1398 | 8.747 | 3.883
x2 = 0.44 | 1046.36 | 1040.88 | 1036.96 | 1032.05 | 1392 | 1357 | 6.023 | 2.698
x2 = 0.4926 | 1037.46 | 1031.79 | 1027.79 | 1022.69 | 1370 | 1334 | 4.811 | 2.196
x2 = 0.5504 | 1027.35 | 1021.49 | 1017.4 | 1012.1 | 1345 | 1308 | 3.728 | 1.757
x2 = 0.6509 | 1008.76 | 1002.63 | 998.36 | 992.71 | 1301 | 1260 | 2.345 | 1.203
x2 = 0.751 | 988.53 | 982.17 | 977.74 | 971.76 | 1258 | 1213 | 1.44 | 0.834
x2 = 0.8504 | 966.18 | 959.59 | 955.04 | 948.73 | 1214 | 1168 | 0.866 | 0.586
x2 = 0.9429 | 942.76 | 935.89 | 931.35 | 924.7 | 1174 | 1127 | 0.527 | 0.426

COC(C)=O [methyl ethanoate] + OCCO
[2]
Conditions | mass density, 298.15 K [kg/m3] | mass density, 303.15 K [kg/m3] | mass density, 308.15 K [kg/m3] | mass density, 313.15 K [kg/m3] | speed of sound, 298.15 K [m/s] | speed of sound, 308.15 K [m/s] | viscosity, 298.15 K [mPa·s] | viscosity, 308.15 K [mPa·s]
x1 = 0.0444 | 1100.26 | 1096.48 | 1092.85 | 1089.11 | 1627 | 1600 | 11.86 | 8.678
x1 = 0.1488 | 1077.91 | 1073.64 | 1070.12 | 1065.97 | 1550 | 1521 | 7.177 | 5.649
x1 = 0.2505 | 1056.96 | 1052.6 | 1049.33 | 1045.05 | 1482 | 1452 | 4.535 | 3.788
x1 = 0.3485 | 1037.61 | 1033.23 | 1030.22 | 1025.91 | 1424 | 1391 | 2.996 | 2.623
x1 = 0.4411 | 1020.06 | 1015.63 | 1012.78 | 1008.44 | 1374 | 1338 | 2.078 | 1.882
x1 = 0.4856 | 1011.89 | 1007.39 | 1004.56 | 1000.19 | 1351 | 1315 | 1.758 | 1.614
x1 = 0.5507 | 1000.2 | 995.55 | 992.71 | 988.26 | 1320 | 1282 | 1.39 | 1.296
x1 = 0.6503 | 982.94 | 977.9 | 974.92 | 970.21 | 1276 | 1237 | 0.994 | 0.941
x1 = 0.7489 | 966.49 | 960.93 | 957.65 | 952.55 | 1237 | 1196 | 0.734 | 0.697
x1 = 0.8498 | 950.22 | 944.03 | 940.33 | 934.64 | 1199 | 1157 | 0.554 | 0.522
x1 = 0.9453 | 935.24 | 928.45 | 924.26 | 917.85 | 1167 | 1122 | 0.435 | 0.404

OCCOCCOCCO [triethylene glycol] + CCCCOC(C)=O
[2]
Conditions | mass density, 298.15 K [kg/m3] | mass density, 303.15 K [kg/m3] | mass density, 308.15 K [kg/m3] | mass density, 313.15 K [kg/m3] | speed of sound, 298.15 K [m/s] | speed of sound, 308.15 K [m/s] | viscosity, 298.15 K [mPa·s] | viscosity, 308.15 K [mPa·s]
x2 = 0.0452 | 1108.89 | 1105.14 | 1101.13 | 1098.6 | 1586 | 1559 | 31.2 | 18.96
x2 = 0.1515 | 1083.49 | 1079.63 | 1075.41 | 1072.59 | 1524 | 1498 | 24.06 | 14.16
x2 = 0.2488 | 1060.06 | 1056.08 | 1051.65 | 1048.53 | 1470 | 1446 | 18.29 | 10.62
x2 = 0.3493 | 1035.73 | 1031.63 | 1026.98 | 1023.57 | 1420 | 1395 | 13.28 | 7.731
x2 = 0.4464 | 1012.14 | 1007.94 | 1003.07 | 999.41 | 1375 | 1350 | 9.402 | 5.575
x2 = 0.4953 | 1000.24 | 995.98 | 991.02 | 987.24 | 1355 | 1329 | 7.798 | 4.694
x2 = 0.5495 | 987.03 | 982.72 | 977.64 | 973.75 | 1334 | 1307 | 6.273 | 3.856
x2 = 0.6493 | 962.66 | 958.25 | 952.97 | 948.88 | 1298 | 1267 | 4.084 | 2.642
x2 = 0.7488 | 938.29 | 933.77 | 928.31 | 924.03 | 1265 | 1232 | 2.566 | 1.776
x2 = 0.8515 | 913.02 | 908.37 | 902.74 | 898.24 | 1233 | 1197 | 1.528 | 1.153
x2 = 0.9421 | 890.6 | 885.8 | 880.04 | 875.29 | 1207 | 1168 | 0.936 | 0.774

OCCOCCOCCO [triethylene glycol] + CCOC(C)=O
[2]
Conditions | mass density, 298.15 K [kg/m3] | mass density, 303.15 K [kg/m3] | mass density, 308.15 K [kg/m3] | mass density, 313.15 K [kg/m3] | speed of sound, 298.15 K [m/s] | speed of sound, 308.15 K [m/s] | viscosity, 298.15 K [mPa·s] | viscosity, 308.15 K [mPa·s]
x2 = 0.0466 | 1112.15 | 1108.39 | 1104.32 | 1101.76 | 1592 | 1567 | 30.14 | 18.65
x2 = 0.1482 | 1095.3 | 1091.27 | 1086.97 | 1084.07 | 1547 | 1523 | 22.05 | 13.71
x2 = 0.25 | 1077.4 | 1073.02 | 1068.55 | 1065.26 | 1499 | 1473 | 15.58 | 9.818
x2 = 0.3499 | 1058.65 | 1053.94 | 1049.34 | 1045.63 | 1452 | 1426 | 10.73 | 6.905
x2 = 0.4493 | 1038.63 | 1033.67 | 1028.96 | 1024.82 | 1408 | 1379 | 7.167 | 4.749
x2 = 0.4995 | 1027.95 | 1022.9 | 1018.12 | 1013.77 | 1386 | 1356 | 5.775 | 3.896
x2 = 0.5503 | 1016.71 | 1011.6 | 1006.75 | 1002.18 | 1363 | 1333 | 4.602 | 3.168
x2 = 0.6497 | 993.4 | 988.21 | 983.2 | 978.19 | 1318 | 1286 | 2.881 | 2.076
x2 = 0.749 | 968.18 | 962.95 | 957.73 | 952.29 | 1271 | 1236 | 1.748 | 1.329
x2 = 0.8503 | 940.27 | 934.9 | 929.41 | 923.53 | 1220 | 1181 | 1.015 | 0.823
x2 = 0.9417 | 913.03 | 907.33 | 901.55 | 895.28 | 1171 | 1130 | 0.604 | 0.523

OCCOCCOCCO [triethylene glycol] + COC(C)=O
[2]
Conditions | mass density, 298.15 K [kg/m3] | mass density, 303.15 K [kg/m3] | mass density, 308.15 K [kg/m3] | mass density, 313.15 K [kg/m3] | speed of sound, 298.15 K [m/s] | speed of sound, 308.15 K [m/s] | viscosity, 298.15 K [mPa·s] | viscosity, 308.15 K [mPa·s]
x2 = 0.0455 | 1115.19 | 1111.41 | 1107.51 | 1105.03 | 1598 | 1572 | 32.01 | 19.45
x2 = 0.1522 | 1103.73 | 1099.72 | 1095.8 | 1093.05 | 1559 | 1533 | 25.74 | 15.15
x2 = 0.2512 | 1091.78 | 1087.49 | 1083.5 | 1080.38 | 1521 | 1493 | 19.76 | 11.49
x2 = 0.3504 | 1078.53 | 1073.91 | 1069.84 | 1066.3 | 1482 | 1452 | 14.27 | 8.336
x2 = 0.4457 | 1064.43 | 1059.49 | 1055.35 | 1051.39 | 1446 | 1414 | 9.869 | 5.882
x2 = 0.49 | 1057.35 | 1052.25 | 1048.08 | 1043.93 | 1428 | 1396 | 8.158 | 4.935
x2 = 0.5519 | 1046.77 | 1041.46 | 1037.27 | 1032.85 | 1402 | 1369 | 6.128 | 3.806
x2 = 0.6512 | 1027.79 | 1022.13 | 1017.92 | 1013.08 | 1357 | 1323 | 3.687 | 2.422
x2 = 0.7516 | 1005.3 | 999.28 | 995.06 | 989.76 | 1305 | 1268 | 2.075 | 1.467
x2 = 0.8513 | 978.49 | 972.08 | 967.82 | 962.01 | 1246 | 1206 | 1.103 | 0.854
x2 = 0.9424 | 948.8 | 941.98 | 937.63 | 931.21 | 1188 | 1143 | 0.587 | 0.501
